Source: paper PMC9059125 (Journal of Medicinal Chemistry, 2022)

Experiments:
[1] = simulated gi fluid, pH 6.8
[2] = simulated gi fluid, pH 1.2
[3] = tested on: OTR; details: cited from earlier work
[4] = in vitro; details: pig, simulated gi fluid, pH 6.8
[5] = in vitro; details: pig, simulated gi fluid, pH 1.2, t1/2 SGF
[6] = target: T1, human oxytocin receptor (OTR) (Homo sapiens, UniProt P30559); details: cited from earlier work
T1 construct: NIMH PDSP (data provider)
T1 sequence (P30559 1-389): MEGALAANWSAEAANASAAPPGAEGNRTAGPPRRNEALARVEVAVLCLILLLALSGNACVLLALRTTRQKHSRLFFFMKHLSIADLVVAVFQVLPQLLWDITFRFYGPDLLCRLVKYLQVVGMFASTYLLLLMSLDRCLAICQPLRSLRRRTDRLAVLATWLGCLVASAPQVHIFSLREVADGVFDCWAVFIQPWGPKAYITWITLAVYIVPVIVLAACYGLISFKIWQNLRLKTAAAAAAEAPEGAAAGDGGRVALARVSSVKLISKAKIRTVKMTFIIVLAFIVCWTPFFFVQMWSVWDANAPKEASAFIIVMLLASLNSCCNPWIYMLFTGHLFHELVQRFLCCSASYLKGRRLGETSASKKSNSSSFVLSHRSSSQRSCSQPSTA

Compound	t1/2 SIF [1] [h]	t1/2 SGF [2] [h]	agonistic activity at the OTR (in words) [3]	half-life [4] [h]	half-life [5] [h]	activity at the OTR (in words) [6]
CC[C@H](C)[C@@H]1NC(=O)[C@@H]2CCCN2C(=O)[C@H](Cc2c[nH]c3ccccc23)NC(=O)[C@H](CO)NC(=O)[C@@H]2CSSC[C@@H]3NC(=O)[C@H]([C@@H](C)O)NC(=O)[C@H](CCC(=O)O)NC(=O)CNC(=O)[C@@H]4CSSC[C@H](NC(=O)CNC(=O)[C@H](CCC(N)=O)NC(=O)[C@H]([C@@H](C)O)NC(=O)[C@H](Cc5ccc(O)cc5)NC(=O)[C@H](CSSC[C@H](NC1=O)C(=O)N[C@@H](CCCCN)C(=O)N[C@@H](CCCNC(=N)N)C(=O)N[C@@H](CC(N)=O)C(=O)NCC(=O)N[C@@H](CC(C)C)C(=O)N1CCC[C@H]1C(=O)N[C@@H](C(C)C)C(=O)N4)NC(=O)[C@H]([C@@H](C)O)NC(=O)CNC(=O)[C@H](CC(C)C)NC(=O)[C@H]([C@@H](C)O)NC3=O)C(=O)N[C@@H]([C@@H](C)O)C(=O)N2 [Kalata B7]	>24	>24	weak inherent agonistic activity	–	–	–
CC[C@H](C)[C@@H]1NC(=O)[C@@H]2CCCN2C(=O)[C@@H]2CCCN2C(=O)[C@H]([C@@H](C)CC)NC(=O)[C@H](CO)NC(=O)[C@H](CCCCN)NC(=O)[C@H]([C@@H](C)O)NC(=O)[C@@H]2CSSC[C@H](NC1=O)C(=O)N[C@@H](Cc1ccccc1)C(=O)N1CCC[C@H]1C(=O)N[C@@H](CC(=O)O)C(=O)NCC(=O)N[C@@H](CCCNC(=N)N)C(=O)N2 [SFTI-1]	–	–	–	16.3 ± 2.7	> 24	–
CC[C@@H](C)[C@H]1NC(=O)[C@@H](CCC(N)=O)NC(=O)[C@@H](CC(N)=O)NC(=O)[C@H](NC(=O)[C@H]2CCCN2C(=O)[C@@H](CC(C)C)NC(=O)CN)CSSC[C@H](C(N)=O)NC(=O)[C@@H](Cc2ccc(O)cc2)NC1=O [all-D-retroinverse-OT]	–	–	–	> 24	–	inactive
